Experimental data: patent US12187684B2, “Benzimidazole derivatives as modulators of retinoid-related orphan receptor gamma (RORγ) and pharmaceutical use thereof” (Jiangsu Hengrui Medicine Co., Ltd., priority 2018, dated 2025)

Columns and labels:
RORγ LBD-GST tagged = target: T1, RORγ LBD-GST tagged (Homo sapiens, UniProt P51449); assay: LanthaScreen TR-FRET RORγ coactivator assay; assay type: biochemical; conditions: Fluorescein-D22 coactivator peptide, 1 hour room temperature
T1 construct: RORγ LBD-GST tagged (Cat No. RORC-114H, Creative Biomart); purchased Creative Biomart RORC-114H
T1 sequence (P51449 269-508 limits assumed): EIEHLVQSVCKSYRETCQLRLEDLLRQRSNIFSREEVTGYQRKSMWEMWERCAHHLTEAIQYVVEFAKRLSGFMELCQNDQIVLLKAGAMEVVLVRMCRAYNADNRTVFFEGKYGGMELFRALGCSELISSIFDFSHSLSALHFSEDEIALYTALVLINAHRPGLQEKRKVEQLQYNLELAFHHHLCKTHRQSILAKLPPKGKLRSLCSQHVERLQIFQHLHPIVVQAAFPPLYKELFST
Summary of the method: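 GST-tagged RORγ LBD (25 ng/reaction) was incubated in coregulator buffer D with 5 mM DTT and compound (top 3 μM, 7-fold steps, 7 doses), then with a mix containing 0.6 μM fluorescein-D22 peptide and 8 nM Tb anti-GST antibody. After 1 h at room temperature in the dark, 520/495 nm TR-FRET was read. IC50 came from log concentration versus percent inhibition.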

[1] = system: IL-17 production, human PBMC cells; assay: IL-17 production assay using human PBMC; assay type: cell-based; conditions: Homo sapiens, PBMC, 72 h, human PBMC stimulated by cytostim for 3 days, IL-17 ELISA of supernatant
Text: Test Example 2. IL-17 Production Assay Using Human PBMC
• 1. Human PBMC cells (Cat No. 70025.1, Zenbio) • 2. Lymphocyte medium (Cat No. LYMPH-1, Zenbio) • 3. TexMACS (Cat No. 130-097-196, Miltenyi) • 4. Cytostim-human (Cat No. 1130-092-173, Miltenyi) • 5. Human IL-17 ELISA (Cat No. D1700, R&D systems) • 6. Tecan Infinite M1000 plate reader (Tecan)
Experimental Procedure for IL-17 Production Assay
Cryopreserved peripheral blood human mononuclear cells (PBMCs) were rapidly thawed in warmed Lymphocyte media, and centrifuged cell suspension at 1000 rpm for 10 minutes. The supernatant was removed, and the cell pellets were gently resuspended in TexMACS media.
Human PBMC cells in TexMACS media were plated at 1×10^5 each well in triplicate. The test compounds at various concentrations or vehicle control (<0.5% DMSO) were added into cell culture. The cells were stimulated by cytostim (10 μL/mL) for 3 days in a humidified, 5% CO2 incubator at 37° C.
After incubation, the cell culture supernatant was harvested, and then removed particulates by centrifugation. Human IL-17 in the supernatant was measured using human IL-17 ELISA kit according to the manufacturer's protocol. IC50 values were determined using GraphPad Prism by plotting the compounds concentration versus percent inhibition.

Structure (SMILES)	IC50 (RORγ LBD-GST tagged) [µM]	IC50 [1] [µM]
CCS(=O)(=O)c1ccc(Cc2nc3c(Cl)c(-c4ccccc4CCC(F)(F)F)c(Cl)cc3[nH]2)cc1 [Example 34, 4,6-dichloro-2-(4-(ethylsulfonyl)benzyl)-5-(2-(3,3,3-trifluoropropyl)phenyl)-1H-benzo[d]imidazole]	0.016	0.049
CC(C)Oc1ccccc1-c1cc2nc(C(CC(N)=O)c3ccc(S(=O)(=O)CC4CC4)cc3)[nH]c2cc1Cl (stereo not drawn) [Example 143, 3-(5-chloro-6-(2-isopropoxyphenyl)-1H-benzo[d]imidazol-2-yl)-3-(4-((cyclopropylmethyl)sulfonyl)phenyl)propanamide]	0.01	0.027
CC(=O)NCC(c1ccc(S(=O)(=O)CC2CC2)cc1)c1nc2cc(Cl)c(-c3ccccc3OC(F)F)cc2[nH]1 (stereo not drawn) [Example 129, N-(2-(5-chloro-6-(2-(difluoromethoxy)phenyl)-1H-benzo[d]imidazol-2-yl)-2-(4-((cyclopropylmethyl)sulfonyl)phenyl)ethyl)acetamide]	0.014	0.242
O=S(=O)(CC1CC1)c1ccc(C(CO)c2nc3c(Cl)c(-c4ccccc4OC(F)F)c(Cl)cc3[nH]2)c(F)c1 (stereo not drawn) [Example 99, 2-(4-((cyclopropylmethyl)sulfonyl)-2-fluorophenyl)-2-(4,6-dichloro-5-(2-(difluoromethoxy)phenyl)-1H-benzo[d]imidazol-2-yl)ethanol]	0.025	0.0024
CCS(=O)(=O)c1ccc(C(CO)c2nc3cc(Cl)c(N4CCC(F)(F)CC4)c(Cl)c3[nH]2)cc1 (stereo not drawn) [Example 126, 2-(5,7-dichloro-6-(4,4-difluoropiperidin-1-yl)-1H-benzo[d]imidazol-2-yl)-2-(4-(ethylsulfonyl)phenyl)ethanol]	0.135	0.008
CS(=O)(=O)c1ccc(C(CO)c2nc3c(Cl)c(-c4ccccc4C(F)(F)F)c(Cl)cc3[nH]2)cc1 (stereo not drawn) [Example 46, 2-(4,6-dichloro-5-(2-(trifluoromethyl)phenyl)-1H-benzo[d]imidazol-2-yl)-2-(4-(methylsulfonyl)phenyl)ethanol]	0.048	0.018
CCS(=O)(=O)c1ccc(C(CO)c2nc3c(Cl)c(-c4ccccc4OCCOC)c(Cl)cc3[nH]2)cc1 (stereo not drawn) [Example 20, 2-(4,6-dichloro-5-(2-(2-methoxyethoxy)phenyl)-1H-benzo[d]imidazol-2-yl)-2-(4-(ethylsulfonyl)phenyl)ethanol]	0.013	0.056
COc1ccccc1-c1c(Cl)cc2nc(C(CO)c3ccc(S(=O)(=O)CC4CC4)cc3)[nH]c2c1Cl (stereo not drawn) [Example 135, 2-(4-((cyclopropylmethyl)sulfonyl)phenyl)-2-(5,7-dichloro-6-(2-methoxyphenyl)-1H-benzo[d]imidazol-2-yl)ethanol]	0.039	0.014
CC(C)Oc1ccccc1-c1cc2nc(C(CCO)c3ccc(S(=O)(=O)CC4CC4)cc3)[nH]c2cc1Cl (stereo not drawn) [Example 144, 3-(5-chloro-6-(2-isopropoxyphenyl)-1H-benzo[d]imidazol-2-yl)-3-(4-((cyclopropylmethyl)sulfonyl)phenyl)propan-1-ol]	0.011	0.023
CC(C)Oc1ccccc1-c1c(Cl)cc2nc(C(CO)c3ccc(S(=O)(=O)CC4CC4)cc3)[nH]c2c1Cl (stereo not drawn) [Example 134, 2-(4-((cyclopropylmethyl)sulfonyl)phenyl)-2-(5,7-dichloro-6-(2-isopropoxyphenyl)-1H-benzo[d]imidazol-2-yl)ethanol]	0.006	0.003
CCS(=O)(=O)c1ccc(Cc2nc3c(Cl)c(-c4ccccc4OC(F)(F)F)c(Cl)cc3[nH]2)c(Cl)c1 [Example 86, 4,6-dichloro-2-(2-chloro-4-(ethylsulfonyl)benzyl)-5-(2-(trifluoromethoxy)phenyl)-1H-benzo[d]imidazole]	0.075	0.023
NCC(c1ccc(S(=O)(=O)CC2CC2)cc1)c1nc2ccc(-c3ccccc3OC(F)F)c(Cl)c2[nH]1 (stereo not drawn) [Example 128, 2-(7-chloro-6-(2-(difluoromethoxy)phenyl)-1H-benzo[d]imidazol-2-yl)-2-(4-((cyclopropylmethyl)sulfonyl)phenyl)ethanamine]	0.006	0.091
